Assay results published in ChEMBL document CHEMBL5036346, “Role of Chain Length and Degree of Unsaturation of Fatty Acids in the Physicochemical and Pharmacological Behavior of Drug-Fatty Acid Conjugates in Diabetes” (J Med Chem, 2021).
Active and inactive are the calls of the source. The rule behind the calls is not given here.

Assays:
MIN6 [1] = test: Cytotoxicity against mouse MIN6 cells assessed as cell viability at 20 uM equiv. LSF measured after 48 hrs by MTT assay; format: cell-based; conditions: min6, 48 h
Erythrocyte = test: Induction of hemolysis in Wistar rat RBC at 20 uM equiv. LSF measured after 1 hr by spectrophotometric method; format: cell-based
[2] = Drug uptake in mouse MIN6 cells assessed as lisofylline-level in cell lysates at 20 uM equiv. LSF measured after 6 hrs by HPLC analysis; format: ADME, subcellular; conditions: min6, 6 h
MIN6 [3] = test: Cytoprotective activity against cytokine-mediated cytotoxicity in mouse MIN6 cells assessed as increase in cell viability at 20 uM equiv. LSF incubated for 48 hrs in presence of cocktail of cytokines TNF-alpha/IL-1-beta/IFN-gamma by MTT assay; format: functional, cell-based
[4] = Initial plasma concentration in Wistar rat at 30 mg/kg, iv by HPLC analysis; format: ADME, organism-based
[5] = Half life in Wistar rat at 30 mg/kg, iv measured after 24 hrs by HPLC analysis; format: ADME, organism-based; conditions: in vivo; for half-life: Wistar
[6] = AUC (0 to t) in Wistar rat at 30 mg/kg, iv measured after 24 hrs by HPLC analysis; format: ADME, organism-based; design: route intravenous, time 24 hrs, dose 30 mg/kg; conditions: in vivo
[7] = AUC (0 to infinity) in Wistar rat at 30 mg/kg, iv by HPLC analysis; format: ADME, organism-based; design: time infinity, route intravenous, dose 30 mg/kg; conditions: in vivo; for AUC(0-inf): Wistar
[8] = AUMC (0 to t) in Wistar rat at 30 mg/kg, iv measured after 24 hrs by HPLC analysis; format: ADME, organism-based; conditions: in vivo
[9] = AUMC (0 to infinity) in Wistar rat at 30 mg/kg, iv by HPLC analysis; format: ADME, organism-based; conditions: in vivo
[10] = MRT in Wistar rat at 30 mg/kg, iv measured after 24 hrs by HPLC analysis; format: ADME, organism-based; conditions: in vivo
[11] = Volume of distribution in Wistar rat at 30 mg/kg, iv measured after 24 hrs by HPLC analysis; format: ADME, organism-based; conditions: in vivo
[12] = Clearance in Wistar rat at 30 mg/kg, iv measured after 24 hrs by HPLC analysis; format: ADME, organism-based; conditions: in vivo
Rattus norvegicus [13] = test: Antidiabetic activity against STZ-induced diabetic Wistar rat model assessed as decrease in fasting blood glucose level at 30 mg/kg, ip administered once daily for 5 weeks and measured after 3 weeks by glucometric analysis; format: functional, organism-based
Rattus norvegicus [14] = test: Antidiabetic activity against STZ-induced diabetic Wistar rat model assessed as decrease in fasting blood glucose level at 30 mg/kg, ip administered once daily for 5 weeks and measured after 5 weeks by glucometric analysis; format: functional, organism-based
Rattus norvegicus [15] = test: Antidiabetic activity against STZ-induced diabetic Wistar rat model assessed as increase in plasma insulin level at 30 mg/kg, ip administered once daily for 5 weeks and measured after 3 to 5 weeks; format: functional, organism-based; conditions: time 3-5 weeks
Rattus norvegicus [16] = test: Protection against STZ-induced oxidative stress-mediated liver toxicity in Wistar rat assessed as reduction in plasma ALAT level at 30 mg/kg, ip administered once daily for 5 weeks measured after 3 to 5 weeks; format: functional, organism-based; conditions: time 3-5 weeks
Rattus norvegicus [17] = test: Protection against STZ-induced oxidative stress-mediated liver toxicity in Wistar rat assessed as reduction in plasma ASAT level at 30 mg/kg, ip administered once daily for 5 weeks measured after 3 to 5 weeks; format: functional, organism-based; conditions: time 3-5 weeks
Rattus norvegicus [18] = test: Protection against STZ-induced renal toxicity in Wistar rat assessed as reduction in plasma uric acid level at 30 mg/kg, ip administered once daily for 5 weeks measured after 3 to 5 weeks; format: functional, organism-based; conditions: time 3-5 weeks
Rattus norvegicus [19] = test: Protection against STZ-induced dyslipidemia in Wistar rat assessed as reduction in plasma triglyceride level at 30 mg/kg, ip administered once daily for 5 weeks measured after 3 to 5 weeks; format: functional, organism-based; conditions: time 3-5 weeks
Rattus norvegicus [20] = test: Protection against STZ-induced dyslipidemia in Wistar rat assessed as reduction in plasma cholesterol level at 30 mg/kg, ip administered once daily for 5 weeks measured after 3 to 5 weeks; format: functional, organism-based; conditions: time 3-5 weeks
Rattus norvegicus [21] = test: Protection against STZ-induced pancreatic beta cell destruction in Wistar rat assessed as proper arrangement of islets at 30 mg/kg, ip administered once daily for 5 weeks and measured on day 35 by Hematoxylin and eosin staining based analysis; format: functional, organism-based
Albumin [22] = biological target: T1, Albumin (Bos taurus, UniProt P02769); test: Binding affinity to bovine serum albumin assessed as decrease in fluorescence intensity measured after 30 mins by fluorescence quenching method; format: ADME; conditions: cattle, isolated protein, 0.5 h
T1 sequence (P02769 whole entry): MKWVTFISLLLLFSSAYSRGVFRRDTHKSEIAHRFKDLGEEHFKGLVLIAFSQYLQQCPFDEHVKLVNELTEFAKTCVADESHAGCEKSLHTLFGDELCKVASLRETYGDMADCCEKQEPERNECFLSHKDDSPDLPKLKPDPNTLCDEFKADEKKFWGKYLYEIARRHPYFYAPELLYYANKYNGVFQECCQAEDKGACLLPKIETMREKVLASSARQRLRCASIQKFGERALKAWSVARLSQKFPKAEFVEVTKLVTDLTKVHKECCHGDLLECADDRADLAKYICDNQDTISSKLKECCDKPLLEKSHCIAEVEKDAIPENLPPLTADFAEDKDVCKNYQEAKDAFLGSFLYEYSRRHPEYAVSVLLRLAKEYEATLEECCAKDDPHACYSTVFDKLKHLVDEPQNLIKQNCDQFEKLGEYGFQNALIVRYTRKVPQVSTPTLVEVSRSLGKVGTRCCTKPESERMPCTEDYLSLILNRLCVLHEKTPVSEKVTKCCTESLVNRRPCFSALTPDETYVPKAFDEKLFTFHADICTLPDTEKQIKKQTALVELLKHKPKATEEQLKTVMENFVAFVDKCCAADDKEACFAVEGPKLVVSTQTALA

[23] = Elimination rate constant in Wistar rat at 30 mg/kg,iv measured after 24 hrs by HPLC analysis; format: ADME, organism-based; conditions: in vivo
[24] = Prodrug release in rat plasma assessed as intact parent compound remaining measured after 72 hrs by HPLC analysis; format: ADME, cell-free
Rattus norvegicus [25] = test: Antidiabetic activity against STZ-induced diabetic Wistar rat model assessed as decrease in mortality at 30 mg/kg, ip administered once daily for 5 weeks; format: functional, organism-based
Rattus norvegicus [26] = test: Protection against STZ-induced inflammation in Wistar rat assessed as reduction in CD4+ T-cell infiltration into pancreatic islets at 30 mg/kg, ip administered once daily for 5 weeks and measured on day 35 by […] based analysis; format: functional, organism-based
Rattus norvegicus [27] = test: Protection against STZ-induced inflammation in Wistar rat assessed as reduction in CD8+ T-cell infiltration into pancreatic islets at 30 mg/kg, ip administered once daily for 5 weeks and measured on day 35 by […] based analysis; format: functional, organism-based
[28] = Aggregation property of the compound assessed as critical micelle concentration by fluorescence based analysis; format: physicochemical
Albumin [29] = biological target: T1, Albumin; test: Binding affinity to bovine serum albumin assessed as bathochromic peak shift measured after 30 mins by fluorescence quenching method; format: ADME; conditions: cattle, isolated protein, 0.5 h
[30] = Initial plasma concentration in Wistar rat at 15 mg/kg, iv by HPLC analysis; format: ADME, organism-based
[31] = Half life in Wistar rat at 15 mg/kg, iv measured after 24 hrs by HPLC analysis; format: ADME, organism-based; conditions: in vivo
[32] = AUC (0 to t) in Wistar rat at 15 mg/kg, iv measured after 24 hrs by HPLC analysis; format: ADME, organism-based; design: route intravenous, dose 15 mg/kg, time 24 hrs; conditions: in vivo
[33] = AUC (0 to infinity) in Wistar rat at 15 mg/kg, iv by HPLC analysis; format: ADME, organism-based; design: time infinity, route intravenous, dose 15 mg/kg; conditions: in vivo
[34] = AUMC (0 to t) in Wistar rat at 15 mg/kg, iv measured after 24 hrs by HPLC analysis; format: ADME, organism-based; conditions: in vivo
[35] = AUMC (0 to infinity) in Wistar rat at 15 mg/kg, iv by HPLC analysis; format: ADME, organism-based; conditions: in vivo
[36] = MRT in Wistar rat at 15 mg/kg, iv measured after 24 hrs by HPLC analysis; format: ADME, organism-based; conditions: in vivo
[37] = Volume of distribution in Wistar rat at 15 mg/kg, iv measured after 24 hrs by HPLC analysis; format: ADME, organism-based; conditions: in vivo
[38] = Clearance in Wistar rat at 15 mg/kg, iv measured after 24 hrs by HPLC analysis; format: ADME, organism-based; conditions: in vivo
[39] = Elimination rate constant in Wistar rat at 15 mg/kg,iv measured after 24 hrs by HPLC analysis; format: ADME, organism-based; conditions: in vivo
Rattus norvegicus [40] = test: Antidiabetic activity against STZ-induced diabetic Wistar rat model assessed as decrease in fasting blood glucose level at 15 mg/kg, ip administered once daily for 5 weeks and measured after 3 weeks by glucometric analysis; format: functional, organism-based
Rattus norvegicus [41] = test: Antidiabetic activity against STZ-induced diabetic Wistar rat model assessed as decrease in fasting blood glucose level at 15 mg/kg, ip administered once daily for 5 weeks and measured after 5 weeks by glucometric analysis; format: functional, organism-based
Rattus norvegicus [42] = test: Protection against STZ-induced pancreatic beta cell destruction in Wistar rat assessed as proper arrangement of islets at 15 mg/kg, ip administered once daily for 5 weeks and measured on day 35 by Hematoxylin and eosin staining based analysis; format: functional, organism-based

| C0 [4] [ng/mL] | AUC(0-t) at 24 h [6] [ng·h/mL] | AUMCt [8] [ng·h²/mL] | AUMC [9] [ng·h²/mL] | Vd [11] [L/kg] | Kb (Albumin [22]) | k el at 24 h [23] [s⁻¹] | CMC [28] [µg/mL] | Structure (SMILES) | Activity (MIN6 [1]) | Activity (Erythrocyte) | Activity (MIN6 [3]) | Activity (Rattus norvegicus [15]) | Activity (Rattus norvegicus [16]) | Activity (Rattus norvegicus [17]) | Activity (Rattus norvegicus [18]) | Activity (Rattus norvegicus [19]) | Activity (Rattus norvegicus [20]) | Activity (Rattus norvegicus [21]) | Activity (Rattus norvegicus [26]) | Activity (Rattus norvegicus [27]) | further results |
| --- | --- | --- | --- | --- | --- | --- | --- | --- | --- | --- | --- | --- | --- | --- | --- | --- | --- | --- | --- | --- | --- |
| 4750 | 6110 | 30500 | 43200 | 15 | 6.34 10^4L/mol | 4.44e-05 | 7.58 | CCCCCCCCC=CCCCCCCCC(=O)OC(C)CCCCn1c(=O)c2c(ncn2C)n(C)c1=O (configuration not stated) | Non-Toxic | Non-Toxic | Active | Active | Active | Active | Active | Active | Active | Active | Active | Active | Drug uptake [2]: 56 ng; half-life [5]: 4.44 h; AUC(0-inf) [7]: 6640 ng·h/mL; MRT ([10]; Wistar, read-out: MRT): 7.91 h; clearance [12]: 40.3 mL/min/kg; Activity (Rattus norvegicus [13]): Active; Activity (Rattus norvegicus [14]): Active; Stability [24]: 9.74%; Activity (Rattus norvegicus [25]): Active |
| 4900 | 16200 | 77100 | 98700 | 2.59 | 2.7 10^4L/mol | 6.39e-05 | 0.81 | CCCCC/C=C/CC=CCCCCCCCC(=O)OC(C)CCCCn1c(=O)c2c(ncn2C)n(C)c1=O (configuration not stated) | Non-Toxic | Non-Toxic | Active | Active | Active | Active | Active | Active | Active | Active | Active | Active | Drug uptake [2]: Active; half-life [5]: 3.12 h; AUC [7]: 16984.11 ng·h/mL; MRT ([10]; Wistar, read-out: MRT): 6.55 h |
| 4120 | 13500 | 67500 | 77300 | 1.77 | 2.05 10^4L/mol | 0.000142 | 6.31 | CC(CCCCn1c(=O)c2c(ncn2C)n(C)c1=O)OC(=O)CCCCC1CCSS1 (configuration not stated) | Non-Toxic | Non-Toxic | Active | Active | Active | Active | Active | Active | Active | Active | Active | Active | t1/2 ([5]; 30 mg/kg, 24 h): 1.26 h; AUC [7]: 13838.8 ng·h/mL; MRT ([10]; 30 mg/kg, 24 h): 5.16 h; Activity (Rattus norvegicus [13]): inactive; Activity (Rattus norvegicus [14]): inactive |
| 267 | 3490 | 29900 | 24800 | 13.8 | 5.55 10^4L/mol | 4.72e-05 | 7.4 | CCCCCCCCCCCCCCCC(=O)OC(C)CCCCn1c(=O)c2c(ncn2C)n(C)c1=O (configuration not stated) | Non-Toxic | Non-Toxic | Active | Active | Active | Active | Active | Active | Active | Active | Active | Active | Drug uptake [2]: Active; half-life [5]: 3.59 h; AUC(0-inf) [7]: 3890 ng·h/mL; MRT ([10]; Wistar, read-out: MRT): 9.07 h; clearance [12]: 64.9 mL/min/kg; Activity (Rattus norvegicus [13]): Active; Activity (Rattus norvegicus [14]): Active; Activity (Albumin [29]): Active; Activity (Rattus norvegicus [25]): Active |
|  |  |  |  |  | 6.32 10^4L/mol |  |  | C[C@@H](O)CCCCn1c(=O)c2c(ncn2C)n(C)c1=O [LISOFYLLINE] | Non-Toxic |  |  |  |  |  |  |  |  |  |  |  | C0 [30]: 16400 ng/mL; half-life [31]: 0.752 h; AUC(0-t) at 24 h [32]: 14700 ng·h/mL; AUC(0-inf) [33]: 14700 ng·h/mL; AUMCt [34]: 12100 ng·h²/mL; AUMC [35]: 12800 ng·h²/mL; MRT [36]: 0.818 h; Vd [37]: 0.962 L/kg; clearance [38]: 17 mL/min/kg; k el at 24 h [39]: 0.000257 s⁻¹; Activity (Rattus norvegicus [40]): Active; Activity (Rattus norvegicus [41]): Active; Activity (Rattus norvegicus [42]): Active |
